Columns and labels:
[1] = molecular target: GDP-bound NRAS wild-type protein (Homo sapiens, UniProt P01111); assay: Binding to NRAS by surface plasmon resonance (SPR), Single Cycle Kinetics; conditions: ratio of KD for GDP-bound NRAS wild-type protein to KD for KRAS, SPR
[2] = molecular target: GDP-bound HRAS wild-type protein (Homo sapiens, UniProt P01112); assay: Binding to HRAS by surface plasmon resonance (SPR), Single Cycle Kinetics; conditions: ratio of KD for GDP-bound HRAS wild-type protein to KD for KRAS, SPR
Sequence of GDP-bound HRAS wild-type protein (P01112 whole entry): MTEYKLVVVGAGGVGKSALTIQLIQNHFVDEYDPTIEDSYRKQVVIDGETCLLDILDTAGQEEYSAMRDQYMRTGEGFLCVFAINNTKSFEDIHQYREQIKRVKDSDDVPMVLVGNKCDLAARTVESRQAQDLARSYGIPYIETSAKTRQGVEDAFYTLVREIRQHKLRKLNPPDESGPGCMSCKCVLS

[3] = tested on: human lung cancer strain NCI-H441; assay: cells; conditions: NCI-H441, 96 h, read-out: NCI-H441 IC50 (nM), NCI-H441 cell proliferation, 4 days, CellTiter-Glo;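 note: cell proliferation inhibition after four days measured by CellTiter-Glo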

Sequence of GDP-bound NRAS wild-type protein (P01111 whole entry): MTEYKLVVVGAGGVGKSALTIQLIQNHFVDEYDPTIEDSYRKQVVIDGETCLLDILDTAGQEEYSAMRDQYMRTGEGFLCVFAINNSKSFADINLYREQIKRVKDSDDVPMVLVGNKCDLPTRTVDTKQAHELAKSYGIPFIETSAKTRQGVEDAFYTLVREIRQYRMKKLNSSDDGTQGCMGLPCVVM

Row | Compound | NRAS/KRAS (KD ratio) [1] | HRAS/KRAS (KD ratio) [2] | IC50 [3] [nM]
1 | CCCN1C(=O)C[C@@H](C(=O)N(C)C)N(C)C(=O)[C@H](C2CCCC2)N(C)C(=O)C2(CCC2)NC(=O)[C@@H]2C[C@@H](OCC)CN2C(=O)[C@H](CCc2cc(F)c(C(F)(F)F)c(F)c2)NC(=O)CN(C)C(=O)[C@H](Cc2ccc(C(F)(F)F)cc2)N2CC/C=C\C[C@@H](C2=O)N(C)C(=O)CN(C)C(=O)[C@H]([C@@H](C)CC)NC(=O)[C@@H]1CC(C)C [PP1825] | A (a compound having 10 or more and less than 20 is denoted as A) | A (a compound having 10 or more and less than 20 is denoted as A) | 8
2 | CCC[C@H]1C(=O)N[C@@H]([C@@H](C)CC)C(=O)N(C)CC(=O)N(C)[C@H]2C/C=C\CCN(C2=O)[C@@H](Cc2ccc(C)cc2)C(=O)N(C)CC(=O)N[C@@H](CCc2ccc(C(F)(F)F)c(OC)c2)C(=O)N2C[C@@H](C)C[C@H]2C(=O)NC2(CCC2)C(=O)N(C)[C@@H](C2CCCC2)C(=O)N(C)[C@H](C(=O)N(C)CC)CC(=O)N1C [PP1840] | A (a compound having 10 or more and less than 20 is denoted as A) | B (a compound having 3 or more and less than 10 is denoted as B) | 26.8
3 | CC[C@H](C)[C@@H]1NC(=O)[C@H](CC)N(C)C(=O)C[C@@H](C(=O)N(C)C)N(C)C(=O)[C@H](C2CCCC2)N(C)C(=O)C2(CC(C)(C)C2)NC(=O)[C@@H]2C[C@@H](C)CN2C(=O)[C@H](CCc2ccc(C(F)(F)F)c(Cl)c2)NC(=O)CN(C)C(=O)[C@H](Cc2ccc(C)cc2)N2CC/C=C\C[C@@H](C2=O)N(C)C(=O)CN(C)C1=O [PP1846] | A (a compound having 10 or more and less than 20 is denoted as A) | B (a compound having 3 or more and less than 10 is denoted as B) | 9.8
4 | CC[C@H](C)[C@@H]1NC(=O)[C@H](CC(C)C)N(C)C(=O)C[C@@H](C(=O)N(CC)CC)N(C)C(=O)[C@H](C2CCCC2)N(C)C(=O)C2(CCC2)NC(=O)[C@@H]2C[C@@H](C)CN2C(=O)[C@H](CCc2ccc(C(F)(F)F)c(OC)c2)NC(=O)CN(C)C(=O)[C@H](Cc2ccc(C)cc2)N2CC/C=C\C[C@@H](C2=O)N(C)C(=O)CN(C)C1=O [PP1849] | A (a compound having 10 or more and less than 20 is denoted as A) | A (a compound having 10 or more and less than 20 is denoted as A) | 37.1
5 | CC[C@H](C)[C@@H]1NC(=O)[C@H](CC(C)C)N(C)C(=O)C[C@@H](C(=O)N(C)C)N(C)C(=O)[C@H](C2CCCC2)N(C)C(=O)C2(CCC2)NC(=O)[C@@H]2C[C@H](C)CN2C(=O)[C@H](CCc2ccc(C(F)(F)F)c(Cl)c2)NC(=O)CN(C)C(=O)[C@H](Cc2ccc(C)cc2)N2CC/C=C\C[C@@H](C2=O)N(C)C(=O)CN(C)C1=O [PP1852] | A (a compound having 10 or more and less than 20 is denoted as A) | B (a compound having 3 or more and less than 10 is denoted as B) | 6
6 | CCC[C@H]1C(=O)N[C@@H]([C@@H](C)CC)C(=O)N(C)CC(=O)N(C)[C@H]2C/C=C\CCN(C2=O)[C@@H](Cc2ccc(C)cc2)C(=O)N(C)CC(=O)N[C@@H](CCc2ccc(C(F)(F)F)c(OC)c2)C(=O)N2C[C@@H](C)C[C@H]2C(=O)NC2(CCC2)C(=O)N(C)[C@@H](C2CCCC2)C(=O)N(C)[C@H](C(=O)N(C)C)CC(=O)N1C [PP1857] | A (a compound having 10 or more and less than 20 is denoted as A) | B (a compound having 3 or more and less than 10 is denoted as B) | 5
7 | CCC[C@H]1C(=O)N[C@@H]([C@@H](C)CC)C(=O)N(C)CC(=O)N(C)[C@H]2C/C=C\CCN(C2=O)[C@@H](Cc2ccc(C)cc2)C(=O)N(C)CC(=O)N[C@@H](CCc2ccc(C(F)(F)F)c(OC)c2)C(=O)N2C[C@H](C)C[C@H]2C(=O)NC2(CCC2)C(=O)N(C)[C@@H](C2CCCC2)C(=O)N(C)[C@H](C(=O)N(C)C)CC(=O)N1C [PP1859] | A (a compound having 10 or more and less than 20 is denoted as A) | A (a compound having 10 or more and less than 20 is denoted as A) | 28.8
8 | CCC[C@H]1C(=O)N[C@@H]([C@@H](C)CC)C(=O)N(C)CC(=O)N(C)[C@H]2C/C=C\CCN(C2=O)[C@@H](Cc2ccc(C)cc2)C(=O)N(C)CC(=O)N[C@@H](CCc2cc(F)c(C(F)(F)F)c(F)c2)C(=O)N2C[C@@H](C)C[C@H]2C(=O)NC2(CCC2)C(=O)N(C)[C@@H](C2CCCC2)C(=O)N(C)[C@H](C(=O)N(C)CC)CC(=O)N1C [PP1860] | A (a compound having 10 or more and less than 20 is denoted as A) | A (a compound having 10 or more and less than 20 is denoted as A) | 10.3
9 | CC[C@H](C)[C@@H]1NC(=O)[C@H](CC2CC2)N(C)C(=O)C[C@@H](C(=O)N(C)C)N(C)C(=O)[C@H](C2CCCC2)N(C)C(=O)C2(CCC2)NC(=O)[C@@H]2C[C@H](C)CN2C(=O)[C@H](CCc2ccc(C(F)(F)F)c(OC)c2)NC(=O)CN(C)C(=O)[C@H](Cc2ccc(C)cc2)N2CC/C=C\C[C@@H](C2=O)N(C)C(=O)CN(C)C1=O [PP1861] | A (a compound having 10 or more and less than 20 is denoted as A) | B (a compound having 3 or more and less than 10 is denoted as B) | 25.7
10 | CCC[C@H]1C(=O)N[C@@H]([C@@H](C)CC)C(=O)N(C)CC(=O)N(C)[C@H]2C/C=C\CCN(C2=O)[C@@H](Cc2ccc(C)cc2)C(=O)N(C)CC(=O)N[C@@H](CCc2cc(F)c(C(F)(F)F)c(F)c2)C(=O)N2C[C@H](C)C[C@H]2C(=O)NC2(CCC2)C(=O)N(C)[C@@H](C2CCCC2)C(=O)N(C)[C@H](C(=O)N(C)CC)CC(=O)N1C [PP1862] | A (a compound having 10 or more and less than 20 is denoted as A) | A (a compound having 10 or more and less than 20 is denoted as A) | 22.2
11 | CC[C@H](C)[C@@H]1NC(=O)[C@H](CC(C)C)N(C)C(=O)C[C@@H](C(=O)N(C)C)N(C)C(=O)[C@H](C2CCCC2)N(C)C(=O)C2(CCC2)NC(=O)[C@@H]2C[C@H](C)CN2C(=O)[C@H](CCc2ccc(C(F)(F)F)c(OC)c2)NC(=O)CN(C)C(=O)[C@H](Cc2ccc(C)cc2)N2CC/C=C\C[C@@H](C2=O)N(C)C(=O)CN(C)C1=O [PP1865] | A (a compound having 10 or more and less than 20 is denoted as A) | B (a compound having 3 or more and less than 10 is denoted as B) | 36
12 | CCC[C@H]1C(=O)N[C@@H]([C@@H](C)CC)C(=O)N(C)CC(=O)N(C)[C@H]2C/C=C\CCN(C2=O)[C@@H](Cc2ccc(C)cc2)C(=O)N(C)CC(=O)N[C@@H](CCc2ccc(C(F)(F)F)c(OC)c2)C(=O)N2C[C@@H](C)C[C@H]2C(=O)NC2(CC(C)(C)C2)C(=O)N(C)[C@@H](C2CCCC2)C(=O)N(C)[C@H](C(=O)N(C)C)CC(=O)N1C [PP1888] | A (a compound having 10 or more and less than 20 is denoted as A) | B (a compound having 3 or more and less than 10 is denoted as B) | 3.5
13 | CCC[C@H]1C(=O)N[C@@H]([C@@H](C)CC)C(=O)N(C)CC(=O)N(C)[C@H]2C/C=C\CCN(C2=O)[C@@H](Cc2ccc(C)cc2)C(=O)N(C)CC(=O)N[C@@H](CCc2ccc(C(F)(F)F)c(OC)c2)C(=O)N2C[C@H](C)C[C@H]2C(=O)NC2(CC(C)(C)C2)C(=O)N(C)[C@@H](C2CCCC2)C(=O)N(C)[C@H](C(=O)N(C)C)CC(=O)N1C [PP1890] | A (a compound having 10 or more and less than 20 is denoted as A) | B (a compound having 3 or more and less than 10 is denoted as B) | 3.6
14 | CCC[C@H]1C(=O)N[C@@H]([C@@H](C)CC)C(=O)N(C)CC(=O)N(C)[C@H]2C/C=C\CCN(C2=O)[C@@H](Cc2ccc(C)cc2)C(=O)N(C)CC(=O)N[C@@H](CCc2ccc(C(F)(F)F)c(Cl)c2)C(=O)N2C[C@H](C)C[C@H]2C(=O)NC2(CC(C)(C)C2)C(=O)N(C)[C@@H](C2CCCC2)C(=O)N(C)[C@H](C(=O)N(C)CC)CC(=O)N1C [PP1894] | A (a compound having 10 or more and less than 20 is denoted as A) | A (a compound having 10 or more and less than 20 is denoted as A) | 15.9
15 | CC[C@H](C)[C@@H]1NC(=O)[C@H](CC2CC2)N(C)C(=O)C[C@@H](C(=O)N(C)CC)N(C)C(=O)[C@H](C2CCCC2)N(C)C(=O)C2(CC(C)(C)C2)NC(=O)[C@@H]2C[C@H](C)CN2C(=O)[C@H](CCc2ccc(C(F)(F)F)c(OC)c2)NC(=O)CN(C)C(=O)[C@H](Cc2ccc(C)cc2)N2CC/C=C\C[C@@H](C2=O)N(C)C(=O)CN(C)C1=O [PP1899] | A (a compound having 10 or more and less than 20 is denoted as A) | B (a compound having 3 or more and less than 10 is denoted as B) | 15.1
16 | CC[C@H](C)[C@@H]1NC(=O)[C@H](CC2CC2)N(C)C(=O)C[C@@H](C(=O)N(C)C)N(C)C(=O)[C@H](C2CCCC2)N(C)C(=O)C2(CC(C)(C)C2)NC(=O)[C@@H]2C[C@@H](C)CN2C(=O)[C@H](CCc2ccc(C(F)(F)F)c(OC)c2)NC(=O)CN(C)C(=O)[C@H](Cc2ccc(C)cc2)N2CC/C=C\C[C@@H](C2=O)N(C)C(=O)CN(C)C1=O [PP1901] | A (a compound having 10 or more and less than 20 is denoted as A) | B (a compound having 3 or more and less than 10 is denoted as B) | 7.6
17 | CC[C@H](C)[C@@H]1NC(=O)[C@H](CC2CC2)N(C)C(=O)C[C@@H](C(=O)N(C)CC)N(C)C(=O)[C@H](C2CCCC2)N(C)C(=O)C2(CC(C)(C)C2)NC(=O)[C@@H]2C[C@@H](C)CN2C(=O)[C@H](CCc2ccc(C(F)(F)F)c(OC)c2)NC(=O)CN(C)C(=O)[C@H](Cc2ccc(C)cc2)N2CC/C=C\C[C@@H](C2=O)N(C)C(=O)CN(C)C1=O [PP1902] | A (a compound having 10 or more and less than 20 is denoted as A) | A (a compound having 10 or more and less than 20 is denoted as A) | 12.5

Source: patent US20240158446A1, “CYCLIC COMPOUND HAVING SELECTIVE INHIBITORY ACTION ON KRAS OVER HRAS AND NRAS” (CHUGAI SEIYAKU KABUSHIKI KAISHA, priority 2021, published 2024)
